Assay results as given in ChEMBL document CHEMBL5465560, “Selectivity Literature for EUbOPEN Chemogenomic Library” (2024).

Tests used:
[1] = target: T1, Serine/threonine-protein kinase MAK (Homo sapiens) (UniProt P20794); experiment: Selectivity interaction (KinomeScan (DiscoverX)) EUB0001049a MAK; conditions: at 1 µM
T1 sequence (whole entry): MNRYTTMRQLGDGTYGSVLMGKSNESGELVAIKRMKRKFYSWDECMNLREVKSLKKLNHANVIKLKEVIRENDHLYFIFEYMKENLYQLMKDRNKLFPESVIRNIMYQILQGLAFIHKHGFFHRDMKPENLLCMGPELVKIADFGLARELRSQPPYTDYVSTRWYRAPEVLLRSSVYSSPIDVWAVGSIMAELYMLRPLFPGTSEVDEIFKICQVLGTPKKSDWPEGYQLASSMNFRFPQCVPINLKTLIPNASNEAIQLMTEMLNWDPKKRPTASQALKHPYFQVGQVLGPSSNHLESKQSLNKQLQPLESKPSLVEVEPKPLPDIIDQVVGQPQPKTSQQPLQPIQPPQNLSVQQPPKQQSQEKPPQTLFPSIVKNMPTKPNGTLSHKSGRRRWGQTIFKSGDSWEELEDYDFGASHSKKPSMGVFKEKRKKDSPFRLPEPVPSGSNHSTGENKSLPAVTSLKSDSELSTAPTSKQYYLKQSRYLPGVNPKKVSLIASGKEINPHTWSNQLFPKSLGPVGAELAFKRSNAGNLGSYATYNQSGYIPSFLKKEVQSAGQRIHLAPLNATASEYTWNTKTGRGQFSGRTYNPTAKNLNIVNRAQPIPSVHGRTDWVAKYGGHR

[2] = target: T2, Dual specificity tyrosine-phosphorylation-regulated kinase 2 (Homo sapiens) (UniProt Q92630); experiment: Selectivity interaction (KinomeScan (DiscoverX)) EUB0000666a DYRK2; conditions: at 10 µM
T2 sequence (whole entry): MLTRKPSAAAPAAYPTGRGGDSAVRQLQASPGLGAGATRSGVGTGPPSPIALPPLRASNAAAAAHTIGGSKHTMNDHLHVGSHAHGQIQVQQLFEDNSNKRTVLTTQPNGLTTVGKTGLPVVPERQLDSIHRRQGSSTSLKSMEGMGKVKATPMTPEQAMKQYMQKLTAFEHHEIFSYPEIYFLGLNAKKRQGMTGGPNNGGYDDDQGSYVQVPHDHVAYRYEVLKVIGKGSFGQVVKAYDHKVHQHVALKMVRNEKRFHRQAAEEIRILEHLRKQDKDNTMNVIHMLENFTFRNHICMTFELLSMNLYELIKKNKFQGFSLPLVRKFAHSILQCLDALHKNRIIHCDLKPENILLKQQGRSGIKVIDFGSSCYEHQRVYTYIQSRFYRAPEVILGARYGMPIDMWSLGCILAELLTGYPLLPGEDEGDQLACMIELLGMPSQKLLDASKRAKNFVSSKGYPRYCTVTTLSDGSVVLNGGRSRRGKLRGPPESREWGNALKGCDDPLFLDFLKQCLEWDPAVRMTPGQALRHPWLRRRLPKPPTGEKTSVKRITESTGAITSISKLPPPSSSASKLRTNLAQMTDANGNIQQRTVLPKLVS

[3] = target: T3, Phosphatidylinositol 5-phosphate 4-kinase type-2 alpha (Homo sapiens) (UniProt P48426); experiment: Selectivity interaction (Kinase panel (KiNativ target engagement assay in Jurkat cells)) EUB0001635a PIP4K2A; format: cell-based; conditions: Selectivity number of off-targets 0.0, Selectivity number of targets 233.0, Source Knowledge https://www.sciencedirect.com/science/article/pii/S2451945619300674?via%3Dihub, at 1 µM
T3 sequence (whole entry): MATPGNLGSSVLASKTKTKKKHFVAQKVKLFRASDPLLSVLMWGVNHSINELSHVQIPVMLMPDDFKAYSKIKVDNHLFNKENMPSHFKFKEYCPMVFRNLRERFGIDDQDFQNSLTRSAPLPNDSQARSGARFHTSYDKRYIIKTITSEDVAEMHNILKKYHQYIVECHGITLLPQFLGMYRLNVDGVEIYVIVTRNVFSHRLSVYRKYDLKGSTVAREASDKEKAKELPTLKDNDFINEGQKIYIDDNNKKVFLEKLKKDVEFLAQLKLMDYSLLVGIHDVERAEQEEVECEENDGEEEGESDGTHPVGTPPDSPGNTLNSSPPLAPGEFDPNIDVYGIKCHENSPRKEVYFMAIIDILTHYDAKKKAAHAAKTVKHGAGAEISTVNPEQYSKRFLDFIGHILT

[4] = target: Dual specificity protein kinase CLK2 (Homo sapiens, UniProt P49760); conditions: at 10 µM
[5] = target: Serine/threonine-protein kinase OSR1 (Homo sapiens) (UniProt O95747); experiment: Selectivity interaction (ActivX KiNativ screen (kinase selectivity in THP-1 cell lysates)) EUB0000639a OXSR1; format: subcellular; conditions: lysate
[6] = target: T4, Serine/threonine-protein kinase 26 (Homo sapiens, UniProt Q9P289); experiment: Selectivity interaction (ActivX KiNativ screen (kinase selectivity in THP-1 cell lysates)) EUB0000639a STK26; format: subcellular; conditions: lysate, at 0.04 µM
[7] = target: Mitogen-activated protein kinase kinase kinase 9 (Homo sapiens) (UniProt P80192); experiment: Selectivity interaction (KinomeScan (DiscoverX)) EUB0000595a MAP3K9; conditions: at 10 µM
[8] = target: Homeodomain-interacting protein kinase 1 (Homo sapiens, UniProt Q86Z02); experiment: Selectivity interaction (KinomeScan (DiscoverX)) EUB0000595a HIPK1; conditions: at 10 µM
[9] = target: T4, Serine/threonine-protein kinase 26; experiment: Selectivity interaction (KinomeScan (DiscoverX)) EUB0000092b STK26; conditions: at 10 µM
Focal adhesion kinase 1 = Focal adhesion kinase 1 (Homo sapiens, UniProt Q05397); experiment: Selectivity interaction (KinomeScan (DiscoverX)) EUB0000045b PTK2
[10] = target: T5, Mitogen-activated protein kinase 13 (Homo sapiens) (UniProt O15264); experiment: Selectivity interaction (KinomeScan (DiscoverX)) EUB0000618a MAPK13; conditions: at 10 µM
T5 sequence (whole entry): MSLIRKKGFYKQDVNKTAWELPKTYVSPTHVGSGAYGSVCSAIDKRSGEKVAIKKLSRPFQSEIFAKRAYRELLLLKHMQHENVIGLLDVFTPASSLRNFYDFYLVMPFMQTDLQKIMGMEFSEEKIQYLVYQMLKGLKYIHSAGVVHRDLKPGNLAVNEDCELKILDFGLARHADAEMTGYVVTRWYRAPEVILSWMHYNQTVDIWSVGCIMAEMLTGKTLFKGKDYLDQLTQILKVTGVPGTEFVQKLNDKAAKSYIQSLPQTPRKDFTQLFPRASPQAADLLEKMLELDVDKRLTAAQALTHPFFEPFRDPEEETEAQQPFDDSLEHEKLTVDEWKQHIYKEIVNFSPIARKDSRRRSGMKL

[11] = target: LIM domain kinase 1 (Homo sapiens) (UniProt P53667); conditions: at 10 µM
[12] = target: Serine/threonine-protein kinase SIK1 (Homo sapiens) (UniProt P57059); experiment: Selectivity interaction (KinomeScan (DiscoverX)) EUB0000655a SIK1; conditions: at 10 µM
Serine/threonine-protein kinase SIK1 (Homo sapiens), sequence (P57059 whole entry): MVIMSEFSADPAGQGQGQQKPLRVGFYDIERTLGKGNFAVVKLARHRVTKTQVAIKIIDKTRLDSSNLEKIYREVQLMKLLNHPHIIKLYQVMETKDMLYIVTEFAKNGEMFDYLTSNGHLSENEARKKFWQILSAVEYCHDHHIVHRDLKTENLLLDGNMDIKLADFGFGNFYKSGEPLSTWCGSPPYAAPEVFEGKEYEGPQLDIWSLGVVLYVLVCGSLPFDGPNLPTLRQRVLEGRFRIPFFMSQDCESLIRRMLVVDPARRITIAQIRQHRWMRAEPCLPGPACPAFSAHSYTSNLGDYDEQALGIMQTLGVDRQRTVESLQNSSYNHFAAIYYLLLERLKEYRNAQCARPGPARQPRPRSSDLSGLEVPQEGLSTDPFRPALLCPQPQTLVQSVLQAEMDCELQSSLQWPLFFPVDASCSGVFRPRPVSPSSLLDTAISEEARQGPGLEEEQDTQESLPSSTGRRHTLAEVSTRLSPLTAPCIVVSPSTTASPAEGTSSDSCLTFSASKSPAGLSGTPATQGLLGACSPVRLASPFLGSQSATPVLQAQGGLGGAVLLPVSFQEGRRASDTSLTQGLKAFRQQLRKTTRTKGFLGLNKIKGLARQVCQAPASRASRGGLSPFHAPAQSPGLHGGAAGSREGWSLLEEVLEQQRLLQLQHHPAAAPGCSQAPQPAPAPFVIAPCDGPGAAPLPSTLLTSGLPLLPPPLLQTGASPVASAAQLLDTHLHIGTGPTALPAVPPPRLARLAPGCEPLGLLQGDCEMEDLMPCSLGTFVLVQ

Serine/threonine-protein kinase OSR1 (Homo sapiens), sequence (O95747 2-527 limits assumed): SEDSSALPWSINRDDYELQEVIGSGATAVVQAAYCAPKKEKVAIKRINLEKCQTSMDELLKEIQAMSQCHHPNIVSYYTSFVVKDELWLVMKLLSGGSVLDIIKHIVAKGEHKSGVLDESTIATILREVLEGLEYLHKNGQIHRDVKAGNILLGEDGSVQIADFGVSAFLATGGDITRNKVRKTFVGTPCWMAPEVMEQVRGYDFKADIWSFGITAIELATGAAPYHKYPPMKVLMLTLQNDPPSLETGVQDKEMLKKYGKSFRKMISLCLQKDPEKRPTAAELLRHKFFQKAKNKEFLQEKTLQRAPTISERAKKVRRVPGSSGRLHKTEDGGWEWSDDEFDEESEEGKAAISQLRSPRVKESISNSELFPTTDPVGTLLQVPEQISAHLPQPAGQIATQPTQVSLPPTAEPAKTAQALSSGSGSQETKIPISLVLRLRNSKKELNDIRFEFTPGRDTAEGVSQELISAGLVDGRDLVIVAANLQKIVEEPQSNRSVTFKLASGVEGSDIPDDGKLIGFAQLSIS
Focal adhesion kinase 1, sequence (Q05397 2-1052 limits assumed): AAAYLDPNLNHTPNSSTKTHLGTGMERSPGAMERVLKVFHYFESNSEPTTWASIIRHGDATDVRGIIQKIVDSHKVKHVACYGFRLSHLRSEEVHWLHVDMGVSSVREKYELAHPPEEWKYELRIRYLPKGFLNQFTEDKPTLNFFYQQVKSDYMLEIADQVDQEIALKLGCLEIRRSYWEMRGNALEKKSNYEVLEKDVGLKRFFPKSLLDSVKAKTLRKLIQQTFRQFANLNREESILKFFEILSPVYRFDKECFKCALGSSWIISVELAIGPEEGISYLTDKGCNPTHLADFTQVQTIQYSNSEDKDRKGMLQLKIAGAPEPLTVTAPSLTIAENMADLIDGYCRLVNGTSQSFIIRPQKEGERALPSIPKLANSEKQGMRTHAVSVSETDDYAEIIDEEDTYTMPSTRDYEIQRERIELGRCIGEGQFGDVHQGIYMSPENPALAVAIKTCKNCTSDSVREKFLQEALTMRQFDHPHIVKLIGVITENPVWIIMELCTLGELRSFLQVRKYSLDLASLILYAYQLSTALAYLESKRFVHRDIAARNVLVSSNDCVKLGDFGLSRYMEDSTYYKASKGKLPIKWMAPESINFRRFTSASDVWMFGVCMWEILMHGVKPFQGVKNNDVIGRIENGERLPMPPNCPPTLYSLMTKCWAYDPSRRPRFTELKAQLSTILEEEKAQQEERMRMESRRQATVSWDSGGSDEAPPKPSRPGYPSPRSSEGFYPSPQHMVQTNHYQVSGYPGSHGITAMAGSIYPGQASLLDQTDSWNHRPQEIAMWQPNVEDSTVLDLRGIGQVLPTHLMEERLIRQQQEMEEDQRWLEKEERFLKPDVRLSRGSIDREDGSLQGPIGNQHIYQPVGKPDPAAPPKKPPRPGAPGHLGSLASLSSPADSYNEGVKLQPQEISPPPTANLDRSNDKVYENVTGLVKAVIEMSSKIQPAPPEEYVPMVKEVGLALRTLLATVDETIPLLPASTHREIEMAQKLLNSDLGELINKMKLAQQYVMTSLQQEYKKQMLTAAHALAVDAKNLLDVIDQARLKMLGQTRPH
T4 sequence (Q9P289 2-416 limits assumed): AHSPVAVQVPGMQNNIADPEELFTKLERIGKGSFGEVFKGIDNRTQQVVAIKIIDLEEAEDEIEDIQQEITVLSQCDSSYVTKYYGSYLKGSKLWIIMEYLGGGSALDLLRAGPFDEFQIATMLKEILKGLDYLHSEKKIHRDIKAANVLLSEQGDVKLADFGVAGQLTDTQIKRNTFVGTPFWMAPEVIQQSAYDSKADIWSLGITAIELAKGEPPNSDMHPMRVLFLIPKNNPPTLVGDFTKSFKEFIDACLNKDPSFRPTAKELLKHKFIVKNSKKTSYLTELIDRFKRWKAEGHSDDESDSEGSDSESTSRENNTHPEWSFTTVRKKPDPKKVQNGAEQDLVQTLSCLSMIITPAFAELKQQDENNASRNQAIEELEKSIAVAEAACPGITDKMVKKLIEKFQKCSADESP
Dual specificity protein kinase CLK2, sequence (P49760 whole entry, looked up): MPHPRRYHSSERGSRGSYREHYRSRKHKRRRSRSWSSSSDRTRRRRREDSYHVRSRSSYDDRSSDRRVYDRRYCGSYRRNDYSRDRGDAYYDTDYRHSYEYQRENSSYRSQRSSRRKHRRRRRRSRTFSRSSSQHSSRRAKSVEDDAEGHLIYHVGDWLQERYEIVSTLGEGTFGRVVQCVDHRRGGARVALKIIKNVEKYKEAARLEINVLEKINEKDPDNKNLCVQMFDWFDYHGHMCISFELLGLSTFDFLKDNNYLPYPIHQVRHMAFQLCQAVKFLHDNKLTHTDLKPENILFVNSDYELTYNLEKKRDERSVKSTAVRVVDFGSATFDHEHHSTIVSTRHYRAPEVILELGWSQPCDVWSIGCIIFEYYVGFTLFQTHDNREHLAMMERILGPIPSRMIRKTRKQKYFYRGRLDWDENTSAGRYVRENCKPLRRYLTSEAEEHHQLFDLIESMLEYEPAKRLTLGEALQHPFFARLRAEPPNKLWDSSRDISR
Mitogen-activated protein kinase kinase kinase 9 (Homo sapiens), sequence (P80192 whole entry, looked up): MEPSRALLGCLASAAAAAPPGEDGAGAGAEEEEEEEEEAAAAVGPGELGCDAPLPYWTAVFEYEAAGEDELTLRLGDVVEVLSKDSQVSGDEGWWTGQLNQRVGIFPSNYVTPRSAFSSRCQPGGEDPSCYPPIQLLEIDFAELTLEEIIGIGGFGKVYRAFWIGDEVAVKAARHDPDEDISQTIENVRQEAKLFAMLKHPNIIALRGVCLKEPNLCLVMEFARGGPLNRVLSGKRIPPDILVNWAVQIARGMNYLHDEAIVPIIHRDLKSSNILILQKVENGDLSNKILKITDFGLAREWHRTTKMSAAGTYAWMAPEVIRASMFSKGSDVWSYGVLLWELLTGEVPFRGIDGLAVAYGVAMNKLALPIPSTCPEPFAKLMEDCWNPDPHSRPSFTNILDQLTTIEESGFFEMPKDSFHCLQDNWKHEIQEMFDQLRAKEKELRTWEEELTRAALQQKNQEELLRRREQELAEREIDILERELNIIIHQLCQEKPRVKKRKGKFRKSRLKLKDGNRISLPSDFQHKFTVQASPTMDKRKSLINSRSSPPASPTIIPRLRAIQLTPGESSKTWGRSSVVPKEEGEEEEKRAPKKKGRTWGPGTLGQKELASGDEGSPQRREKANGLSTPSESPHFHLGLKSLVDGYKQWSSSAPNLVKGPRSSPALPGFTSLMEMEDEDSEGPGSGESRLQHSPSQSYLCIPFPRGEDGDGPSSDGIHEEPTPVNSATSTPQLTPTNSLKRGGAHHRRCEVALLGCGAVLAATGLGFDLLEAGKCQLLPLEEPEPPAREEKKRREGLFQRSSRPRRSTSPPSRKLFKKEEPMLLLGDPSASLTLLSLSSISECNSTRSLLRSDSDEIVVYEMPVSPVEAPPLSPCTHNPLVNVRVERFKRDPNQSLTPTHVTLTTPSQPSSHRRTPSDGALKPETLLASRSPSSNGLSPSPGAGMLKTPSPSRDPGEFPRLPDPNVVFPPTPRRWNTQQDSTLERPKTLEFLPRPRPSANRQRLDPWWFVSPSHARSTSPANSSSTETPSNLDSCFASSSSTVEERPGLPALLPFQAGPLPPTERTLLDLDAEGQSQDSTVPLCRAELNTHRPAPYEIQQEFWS
LIM domain kinase 1 (Homo sapiens), sequence (P53667 whole entry, looked up, the tested form may be a part): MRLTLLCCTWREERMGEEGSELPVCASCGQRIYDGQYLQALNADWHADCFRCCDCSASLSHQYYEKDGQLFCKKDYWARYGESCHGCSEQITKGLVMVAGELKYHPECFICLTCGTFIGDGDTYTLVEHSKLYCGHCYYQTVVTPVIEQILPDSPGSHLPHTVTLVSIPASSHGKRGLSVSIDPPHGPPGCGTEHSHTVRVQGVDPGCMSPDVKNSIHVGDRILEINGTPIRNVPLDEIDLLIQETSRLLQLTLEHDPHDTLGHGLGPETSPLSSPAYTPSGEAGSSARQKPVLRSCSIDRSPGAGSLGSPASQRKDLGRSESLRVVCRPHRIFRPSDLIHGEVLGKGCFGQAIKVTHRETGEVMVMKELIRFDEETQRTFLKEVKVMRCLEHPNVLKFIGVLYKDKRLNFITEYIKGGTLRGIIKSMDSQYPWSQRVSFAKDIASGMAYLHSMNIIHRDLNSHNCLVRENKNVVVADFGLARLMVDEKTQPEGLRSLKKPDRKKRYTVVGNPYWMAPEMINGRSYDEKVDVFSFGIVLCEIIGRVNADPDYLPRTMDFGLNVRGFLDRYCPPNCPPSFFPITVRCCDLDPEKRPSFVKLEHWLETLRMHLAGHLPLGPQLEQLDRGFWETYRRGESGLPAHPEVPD

Question: For COc1cc(Nc2nc(C)cc(-c3cnn4nc(OC)ccc34)n2)cc(C(F)(F)F)c1, which % of control [1] is on record?
Answer: 84%

Question: For O=C(NOC[C@H](O)CO)c1ccc(F)c(F)c1Nc1ccc(I)cc1F, which % of control [2] is on record?
Answer: 95%

Question: With C=CC(=O)Nc1ccc(C(=O)Nc2[nH]nc3c2CN(C(=O)N[C@H](CN(C)C)c2ccccc2)C3(C)C)cc1 as the compound, how does the % of engagement [3] read?
Answer: -3.2%

Question: With CCN(CC)CCCCNc1ncc2cc(-c3cc(OC)cc(OC)c3)c(NC(=O)NC(C)(C)C)nc2n1 as the compound, how does the % of control [4] read?
Answer: 100%

Question: How did the % of inhibition ([5]; at 0.01 µM) turn out when CC[C@@H]1[C@H](F)C(=O)N[C@@H]1COc1nccc2cc(C(N)=O)c(OC)cc12 [ZIMLOVISERTIB] was run?
Answer: -18.1%

Question: What about the % of inhibition ([5]; at 0.04 µM) of the same compound?
Answer: -9.1%

Question: What about the % of inhibition ([5]; at 0.2 µM) of the same compound?
Answer: -3%

Question: What about the % of inhibition ([5]; at 1 µM) of the same compound?
Answer: -10.3%

Question: And the % of inhibition ([5]; at 5 µM)?
Answer: 16.3%

Question: What about the % of inhibition [6] of the same compound?
Answer: -3.8%

Question: What does the source list for COCC(=O)NC/C=C/c1ccc2ncnc(Nc3ccc(Oc4ccc(C)nc4)c(C)c3)c2c1 [CP-724714]?
Answer: % of control [7]: 74%; % of control [8]: 88%

Question: For CCC(=O)N1CCN(c2ccc(-n3c(=O)ccc4cnc5ccc(-c6cnc7ccccc7c6)cc5c43)cc2C(F)(F)F)CC1, which % of control [9] is on record?
Answer: 89%

Question: For C=CC(=O)Nc1cc(-n2c(=O)ccc3cnc4ccc(-c5ccc(NS(C)(=O)=O)cc5)cc4c32)ccc1C, which % of control (Focal adhesion kinase 1; at 1 µM) is on record?
Answer: 96%

Question: What about the % of control (Focal adhesion kinase 1; at 10 µM) of the same compound?
Answer: 100%

Question: Which % of control [10] does the source give for O[C@H]1CC[C@H](Nc2ncc3nc(Nc4c(F)cc(F)cc4F)n([C@H]4CCOC4)c3n2)CC1 here?
Answer: 90%

Question: For Cc1cc([C@@H](C)Nc2ccccc2C(=O)O)c2nc(N3CCOCC3)cc(=O)n2c1 [AZD-6482], which % of control [11] is on record?
Answer: 100%

Question: Which % of control [12] does the source give for CN(C)CCOc1ccc(-c2nc(-c3ccncc3)c(-c3ccc4c(c3)CC/C4=N\O)[nH]2)cc1 here?
Answer: 100%
